This note sets out measurements from ChEMBL document CHEMBL4118226, “Discovery of Highly Isoform Selective Orally Bioavailable Phosphoinositide 3-Kinase (PI3K)-γ Inhibitors” (J Med Chem, 2018).

A short description of series [1]: Lipophilicity, log D of the compound at pH 7.4. Format: physicochemical. The settings on record: buffer.
Series [2] is described as follows: Intrinsic clearance in rat hepatocytes assessed as per million cells. Format: ADME, cell-based, Hepatocyte. To be noted: read-out: CLH.
A short description of series [3]: Intrinsic clearance in human hepatocytes assessed as per million cells. Format: ADME, cell-based, Hepatocyte. The settings on record: read-out: CLH.
Series [4] is described as follows: Intrinsic clearance in dog hepatocytes assessed as per million cells. In kind it is ADME, cell-based, Canis lupus familiaris, Hepatocyte. The settings on record: read-out: CLH.
A short description of series [5]: Clearance in rat. Format: ADME, organism-based. To be noted: in vivo.
Series [6] can be described thus: Half life in rat. In kind it is ADME, organism-based. To be noted: in vivo.
Series [7] is described as follows: Oral bioavailability in rat. In kind it is ADME, organism-based. The settings on record: in vivo.
A short description of series [8]: Volume of distribution at steady state in rat. To be noted: in vivo, read-out: Vdss. In kind it is ADME, organism-based.
Series [9] in a line: Half life in dog. In kind it is ADME, organism-based, Canis lupus familiaris. The settings on record: in vivo.
Series [10] can be described thus: Volume of distribution at steady state in dog. Format: ADME, organism-based, Canis lupus familiaris. The settings on record: in vivo, read-out: Vdss.
A short description of series [11]: Clearance in dog. The settings on record: in vivo. In kind it is ADME, organism-based, Canis lupus familiaris.
Series [12] is described as follows: Oral bioavailability in dog. In kind it is ADME, organism-based, Canis lupus familiaris. To be noted: in vivo.

Consider `COCCS(=O)(=O)Nc1cc(-c2sc(NC(C)=O)nc2C)cc2c1C(=O)N([C@@H](C)C1CC1)C2`, for which the logD (as a rule, the decadic logarithm of the distribution of all forms, ionised or not, between an organic phase and buffer at a given pH) in [1] turned out to be 3.5. Further, the hepatocyte CLint in series [2] came out at 166 µL/min/1e6 cells.
As to `CC(=O)Nc1nc(C)c(-c2cc3c(c(S(C)(=O)=O)c2)C(=O)N([C@@H](C)C2CC2)C3)s1`, the log distribution coefficient (logD) in series [1] was found to be 2.4. Moreover, the values for the hepatocyte CLint in series [2], in series [3] and in series [4] were 1.7 to 2 µL/min/1e6 cells, 0.4 µL/min/1e6 cells and 1 µL/min/1e6 cells, respectively. The clearance (usually the rate of elimination divided by the concentration) in series [5] stood at 6.3 mL/min/kg. The half-life – broadly, the time in which the quantity being followed falls by half – in series [6] was 2.3 h; in [9], 3.9 h. In addition, the bioavailability – broadly, the share of a dose that reaches the circulation, judged against a reference dose that is usually intravenous – in series [7] is 51%. The Vd worked out at 1.2 L/kg in series [8] and 1.1 L/kg in [10].
With `CC(=O)Nc1nc(C)c(-c2cc(C)c3c(c2)CN([C@@H](C)C2CC2)C3=O)s1`, the log distribution coefficient (logD) in [1] was 4.3. Also, the hepatocyte CLint in series [2] stood at 11 µL/min/1e6 cells.
For `CC(=O)Nc1nc(C)c(-c2cc(Cl)c3c(c2)CN([C@@H](C)C2CC2)C3=O)s1` the same measures were 3.9 and 3 µL/min/1e6 cells.
In turn, `CC(=O)Nc1nc(C)c(-c2cc3c(c(NS(C)(=O)=O)c2)C(=O)N([C@@H](C)C2CC2)C3)s1` returned a logD in [1] of 3.3. The hepatocyte CLint was 3.7 to 4 µL/min/1e6 cells in [2], 3.4 µL/min/1e6 cells in series [3] and 7.6 µL/min/1e6 cells in series [4]. The clearance came out at 0.7 mL/min/kg in series [5] and 6.2 mL/min/kg in series [11]. Besides, the half-life in series [6] is 6.7 h; in series [9], 1.3 h. Besides, the bioavailability in series [7] was determined as 49%; in series [12], 1.6%. The Vd was 0.4 L/kg in [8] and 0.7 L/kg in series [10].
Consider `C[C@@H](C1CC1)N1Cc2cc(-c3cnc(N)nc3)cc(Cl)c2C1=O`, for which, in series [1], the logD came out at 2.6. The hepatocyte CLint in series [2] was found to be 2 µL/min/1e6 cells.
For `CC(=O)Nc1nc(C)c(-c2cc(Cl)c3c(c2)CN([C@H](C)C2CC2)C3=O)s1` the same measures were 3.9 and 6 µL/min/1e6 cells.
For the compound `COCCNS(=O)(=O)c1cc(-c2sc(NC(C)=O)nc2C)cc2c1C(=O)N([C@@H](C)C1CC1)C2`, the pH-dependent lipophilicity (logD) in series [1] is 2.7. Besides, the hepatocyte CLint in [2] came out at 56 µL/min/1e6 cells.
For `CC(=O)Nc1nc(C)c(-c2cc3c(c(S(N)(=O)=O)c2)C(=O)N([C@@H](C)C2CC2)C3)s1` the same measures were 2.5 and below 2 µL/min/1e6 cells.
For `Cc1cc(-c2cnc3[nH]ccc3n2)cc2c1C(=O)N([C@@H](C)C1CC1)C2` the same measures were 4.3 and 146 µL/min/1e6 cells.
For `Cc1cc(-c2nccnc2N)cc2c1C(=O)N([C@@H](C)C1CC1)C2` the same measures were 2.6 and 43 µL/min/1e6 cells.
`CC(=O)Nc1nc(C)c(-c2cc3c(c(S(=O)(=O)CCCO)c2)C(=O)N([C@@H](C)C2CC2)C3)s1` yielded a logD in series [1] of 1.9. Also, in series [2], the hepatocyte CLint is 6 µL/min/1e6 cells.
For `CNS(=O)(=O)c1cc(-c2sc(NC(C)=O)nc2C)cc2c1C(=O)N([C@@H](C)C1CC1)C2`, the log distribution coefficient (logD) in [1] is 3. The hepatocyte CLint was 4.5 to 5 µL/min/1e6 cells in [2], 0.5 µL/min/1e6 cells in [3] and 2.1 µL/min/1e6 cells in series [4]. Besides, the clearance came out at 4.4 mL/min/kg in [5] and 2.1 mL/min/kg in series [11]. Besides, the half-life in [6] was 2.6 h; in series [9], 12 h. For the same compound, the figures for the bioavailability in series [7] and in series [12] were 30% and 44%, respectively. Besides, the Vd in [8] is 1 L/kg; in series [10], 2.2 L/kg.
With `CC(=O)Nc1ncc(-c2cc(Cl)c3c(c2)CN([C@@H](C)C2CC2)C3=O)s1`, in series [1], the logD was found to be 3.8. Besides, the hepatocyte CLint in series [2] was found to be 2 µL/min/1e6 cells.
For `CNC(=O)c1nc(-c2cc(C)c3c(c2)CN([C@@H](C)C2CC2)C3=O)cnc1N` the same measures were 3.8 and 4 µL/min/1e6 cells.
